Experimental data from ChEMBL document CHEMBL4689842, “EUbOPEN Chemogenomics Library wave 1” (2021).

Columns and labels:
Assay type in all cases: toxicity, cell-based
[1] = test system: Fibroblast; test: Incucyte cell viability with human fibroblast; details: 10 µM, compound concentration 10 uM
[2] = test system: HEK-293T; test: Incucyte cell viability with HEK293T; details: human, 10 µM, compound concentration 10 uM
[3] = test system: U2OS; test: Incucyte cell viability with U2OS; details: human, 10 µM, compound concentration 10 uM
[4] = 0 h, replicate number 1, timepoint 0 hours
[5] = 0 h, replicate number 2, timepoint 0 hours
[6] = 6 h, replicate number 2, timepoint 6 hours
[7] = 12 h, replicate number 2, timepoint 12 hours
[8] = 24 h, replicate number 2, timepoint 24 hours
[9] = 6 h, replicate number 1, timepoint 6 hours
[10] = 12 h, replicate number 1, timepoint 12 hours
[11] = 18 h, replicate number 1, timepoint 18 hours
[12] = 24 h, replicate number 1, timepoint 24 hours
[13] = 18 h, replicate number 2, timepoint 18 hours
Note: filed as whole numbers so only -1 and 0 and 1 occur.

Structure (SMILES)	Growth Rate [1, 4]	Growth Rate [1, 5]	Growth Rate [1, 6]	Growth Rate [1, 8]	Growth Rate [2, 5]	Growth Rate [2, 9]	Growth Rate [2, 10]	Growth Rate [2, 11]	Growth Rate [2, 12]	Growth Rate [3, 9]	Growth Rate [3, 10]	Growth Rate [3, 11]	Growth Rate [3, 13]	Growth Rate [3, 12]	Growth Rate [3, 8]	Growth Rate [1, 10]	Growth Rate [1, 11]	Growth Rate [1, 12]	Growth Rate [3, 4]	Growth Rate [3, 6]	also measured
COc1cc(N2CCC(O)CC2)ccc1Nc1cc(Nc2ccccc2S(=O)(=O)C(C)C)c2cc[nH]c2n1	1	0	1	1	1	0	0	0	0	1	1	1	0	1	0	–	–	–	–	–	Growth Rate [1, 7]: 1
COc1ccc(Br)cc1S(=O)(=O)NC(=O)/C=C/c1ccccc1Cc1ccc2ccccc2c1	1	0	1	1	0	0	0	0	0	–	–	1	–	1	0	1	0	0	0	0	Growth Rate [1, 9]: 0; Growth Rate [1, 13]: 1; Growth Rate [2, 6]: 1; Growth Rate [2, 7]: 1; Growth Rate [2, 13]: 1; Growth Rate [2, 8]: 1; Growth Rate [3, 7]: 1
COc1ccc(CCc2nc3cc(-c4c(C)noc4C)ccc3n2C[C@H](C)N2CCOCC2)cc1Cl	0	–	0	–	1	0	1	0	0	0	1	1	–	1	–	1	1	1	1	–	Growth Rate [1, 9]: 1; Growth Rate [2, 6]: 1; Growth Rate [2, 7]: 0; Growth Rate [2, 13]: 1; Growth Rate [3, 5]: 0
CN1CCN(c2ccc(-c3cccc(CN4CCOCC4)c3)cc2NC(=O)c2c[nH]c(=O)cc2C(F)(F)F)CC1	–	1	0	–	1	0	0	1	1	1	0	0	1	1	0	1	1	1	0	0	Growth Rate [1, 7]: 0
CC(C)(C)c1ccc(C(=O)Nc2cn3cc(-n4ccnc4)ccc3n2)cc1.Cl.Cl	0	–	–	–	1	0	0	0	0	1	1	1	–	1	–	1	1	1	1	–	Growth Rate [3, 5]: 0
COc1ccc2c(c1)O[C@H](c1ccc(OC)c(OC)c1)C[C@@H]2NC(=O)C1(c2ccc3c(c2)OC(F)(F)O3)CC1 [A-1596584]	0	–	–	0	0	0	0	0	0	–	1	1	0	1	–	1	1	1	0	0	Growth Rate [1, 13]: 0; Growth Rate [2, 4]: 1; Growth Rate [3, 7]: 0
